Laboratory results reported in US8106091B2, “Inhibitors of IKK-beta serine-threonine protein kinase” (Chroma Therapeutics Ltd., priority 2006, dated 2012).

Assays:
IKBKB (IKKβ) = biological target: T1, IKBKB (IKKβ) (Homo sapiens, UniProt O14920); assay: IKKβ enzyme assay (Z'-LYTE, Invitrogen); format: biochemical; conditions: ATP at or close to Km; read-out: Inhibitor activity versus IKKβ
T1 construct: purchased Invitrogen (Paisley, UK)
T1 sequence (O14920 1-756): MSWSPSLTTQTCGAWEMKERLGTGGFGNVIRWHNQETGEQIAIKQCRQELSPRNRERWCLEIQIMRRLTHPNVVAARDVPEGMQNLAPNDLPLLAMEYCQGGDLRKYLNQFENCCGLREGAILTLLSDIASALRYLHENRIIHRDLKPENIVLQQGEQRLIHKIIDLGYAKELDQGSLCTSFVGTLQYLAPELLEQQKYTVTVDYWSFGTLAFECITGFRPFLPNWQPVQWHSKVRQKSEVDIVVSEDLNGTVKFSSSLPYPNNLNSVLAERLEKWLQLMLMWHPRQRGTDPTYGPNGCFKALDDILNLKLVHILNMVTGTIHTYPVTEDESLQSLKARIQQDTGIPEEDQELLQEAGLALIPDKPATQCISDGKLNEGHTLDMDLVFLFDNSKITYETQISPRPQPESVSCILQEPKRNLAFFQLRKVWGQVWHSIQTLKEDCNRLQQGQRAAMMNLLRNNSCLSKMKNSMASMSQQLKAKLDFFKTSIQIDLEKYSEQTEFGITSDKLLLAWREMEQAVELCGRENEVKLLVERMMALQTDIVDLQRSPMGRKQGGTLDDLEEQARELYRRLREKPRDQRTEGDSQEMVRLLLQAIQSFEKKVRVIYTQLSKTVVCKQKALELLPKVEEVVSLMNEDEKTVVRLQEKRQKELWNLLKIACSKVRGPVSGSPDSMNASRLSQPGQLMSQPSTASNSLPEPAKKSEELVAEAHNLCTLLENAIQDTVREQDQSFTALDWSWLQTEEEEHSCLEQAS
Procedure: The ability of compounds to inhibit IKKβ kinase activity was measured in an assay performed by Invitrogen (Paisley, UK). The Z′-LYTE™ biochemical assay employs a fluorescence-based, coupled-enzyme format and is based on the differential sensitivity of phosphorylated and non-phosphorylated peptides to proteolytic cleavage. The peptide substrate is labelled with two fluorophores—one at each end—that make up a FRET pair. In the primary reaction, the kinase transfers the gamma-phosphate of ATP to a single serine or threonine residue in a synthetic FRET-peptide. In the secondary reaction, a site-specific protease recognizes and cleaves non-phosphorylated FRET-peptides. Phosphorylation of FRET-peptides suppresses cleavage by the Development Reagent. Cleavage disrupts FRET between the donor (i.e., coumarin) and acceptor (i.e. fluorescein) fluorophores on the FRET-peptide, whereas uncleaved, phosphorylated FRET-peptides maintain FRET. A […] method, which calculates the ratio (the Emission Ratio) of donor emission to acceptor emission after excitation of the donor fluorophore at 400 nm, is used to quantitate reaction progress.
The final 10 μL Kinase Reaction consists of 0.9-8.0 ng IKBKB (IKKβ), 2 μM Ser/Thr 05 Peptide and ATP in 50 mM HEPES pH 7.5, 0.01% BRIJ-35, 10 mM MgCl2, 1 mM EGTA. The assay is performed at an ATP concentration at, or close to the Km. After the 60 minute Kinase Reaction incubation at room temperature, 5 μL of a 1:128 dilution of Development Reagent is added. The assay plate is incubated for a further 60 minutes at room temperature and read on a fluorescence plate reader.
Duplicate data points are generated from a ⅓ log dilution series of a stock solution of test compound in DMSO. Nine dilutions steps are made from a top concentration of 10 μM, and a ‘no compound’ blank is included. Data is collected and analysed using XLfit software from IDBS. The dose response curve is curve fitted to model number 205 (sigmoidal dose-response model). From the curve generated, the concentration giving 50% inhibition is determined and reported.

THP-1 cells = assay: LPS-stimulation of THP-1 cells, TNF-α release; format: cell-based; conditions: Homo sapiens, LPS 1 μg/ml, 6 hrs, inhibitor added 2 hrs before, read-out: Inhibitor activity versus THP-1 TNFα release
Procedure: LPS-Stimulation of THP-1 Cells
THP-1 cells were plated in 100 μl at a density of 4×10^4 cells/well in V-bottomed 96 well tissue culture treated plates and incubated at 37° C. in 5% CO2 for 16 hrs. 2 hrs after the addition of the inhibitor in 100 μl of tissue culture media, the cells were stimulated with LPS (E coli strain 005:B5, Sigma) at a final concentration of 1 μg/ml and incubated at 37° C. in 5% CO2 for 6 hrs. TNF-α levels were measured from cell-free supernatants by sandwich ELISA (R&D Systems #QTA00B)

Row | SMILES | IC50 (IKBKB (IKKβ)) [nM] | IC50 (THP-1 cells) [µM]
1 | NC(=O)Nc1sc(-c2ccc(N(CC[C@H](N)C(=O)OC3CCCC3)Cc3ccccc3)cc2)cc1C(N)=O [Example 21, Cyclopentyl (2S)-2-amino-4-(benzyl{4-[4-carbamoyl-5-(carbamoylamino)thiophen-2-yl]phenyl}amino)butanoate] | < 1000 | 1 to 5
2 | NC(=O)Nc1sc(-c2ccc(COCC[C@H](N)C(=O)OC3CCCC3)cc2)cc1C(N)=O [Example 17, Cyclopentyl O-{4-[4-carbamoyl-5-(carbamoylamino)-2-thienyl]benzyl}-L-homoserinate] | < 1000 | 1 to 5
3 | NC(=O)Nc1sc(-c2ccc(OCC[C@H](NC3CCCCC3)C(=O)OC3CCCC3)cc2)cc1C(N)=O [Example 19, Cyclopentyl O-{4-[4-carbamoyl-5-(carbamoylamino)thiophen-2-yl]phenyl}-N-cyclohexyl-L-homoserinate] | < 1000 | > 5
4 | NC(=O)Nc1sc(-c2ccc(/C=C/C[C@@H](NC3CCCCC3)C(=O)OC3CCCC3)cc2)cc1C(N)=O [Example 20, Cyclopentyl (2R,4E)-5-{4-[4-carbamoyl-5-(carbamoylamino)thiophen-2-yl]phenyl}-2-(cyclohexylamino)pent-4-enoate] | < 1000 | 1 to 5
5 | NC(=O)Nc1cc(-c2ccc(OCC[C@H](N)C(=O)OC3CCCC3)cc2)sc1C(N)=O [Example 23, Cyclopentyl O-{4-[5-carbamoyl-4-(carbamoylamino)-2-thienyl]phenyl}-L-homoserinate] | < 1000 | 1 to 5
6 | NC(=O)Nc1cc(-c2ccc(OCC[C@H](N)C(=O)O)cc2)sc1C(N)=O [Example 46, O-{4-[5-carbamoyl-4-(carbamoylamino)-2-thienyl]phenyl}-L-homoserine] | < 1000 | –
7 | NC(=O)Nc1sc(-c2ccc(/C=C/C[C@H](N)C(=O)O)cc2)cc1C(N)=O [Example 33, (2S,4E)-2-amino-5-{4-[4-carbamoyl-5-(carbamoylamino)-2-thienyl]phenyl}pent-4-enoic acid] | < 1000 | –
8 | NC(=O)Nc1sc(-c2ccc(/C=C/C[C@@H](NC3CCCCC3)C(=O)O)cc2)cc1C(N)=O [Example 44, (2R,4E)-5-{4-[4-carbamoyl-5-(carbamoylamino)thiophen-2-yl]phenyl}-2-(cyclohexylamino)pent-4-enoic acid] | < 1000 | –
9 | NC(=O)Nc1sc(-c2ccc(OCCC[C@@H](N)C(=O)OC3CCCC3)cc2)cc1C(N)=O [Example 4, Cyclopentyl 5-{4-[4-carbamoyl-5-(carbamoylamino)-2-thienyl]phenoxy}-D-norvalinate] | < 1000 | 1 to 5
10 | NC(=O)Nc1sc(-c2ccc(OCC[C@H](NC3CCCCC3)C(=O)O)cc2)cc1C(N)=O [Example 43, O-{4-[4-carbamoyl-5-(carbamoylamino)thiophen-2-yl]phenyl}-N-cyclohexyl-L-homoserine] | < 1000 | –
11 | NC(=O)Nc1cc(-c2ccc(C[C@H](N)C(=O)O)cc2)sc1C(N)=O [Example 47, 4-[5-carbamoyl-4-(carbamoylamino)2-thienyl]-L-phenylalanine] | < 1000 | –
12 | NC(=O)Nc1sc(-c2ccc(C#CC[C@H](N)C(=O)O)cc2)cc1C(N)=O [Example 39, (2S)-2-amino-5-{4-[4-carbamoyl-5-(carbamoylamino)-2-thienyl]phenyl}pent-4-ynoic acid] | < 1000 | –
13 | NC(=O)Nc1sc(-c2ccc(N(CC[C@H](N)C(=O)O)Cc3ccccc3)cc2)cc1C(N)=O [Example 45, (2S)-2-amino-4-(benzyl{4-[4-carbamoyl-5-(carbamoylamino)thiophen-2-yl]phenyl}amino)butanoic acid] | < 1000 | –

Other lines, results leading:

Row | IC50 (IKBKB (IKKβ)) [nM] | IC50 (THP-1 cells) [µM] | SMILES
14 | < 1000 | – | NC(=O)Nc1sc(-c2ccc(CCC[C@H](N)C(=O)O)cc2)cc1C(N)=O [Example 35, 5-{4-[4-carbamoyl-5-(carbamoylamino)-2-thienyl]phenyl}-L-norvaline]
15 | < 1000 | – | NC(=O)Nc1sc(-c2ccc(COCC[C@H](N)C(=O)O)cc2)cc1C(N)=O [Example 41, O-{4-[4-carbamoyl-5-(carbamoylamino)-2-thienyl]benzyl}-L-homoserine]
16 | < 1000 | – | Cc1cc(-c2cc(C(N)=O)c(NC(N)=O)s2)ccc1OCC[C@H](N)C(=O)O [Example 30, O-{4-[4-carbamoyl-5-(carbamoylamino)-2-thienyl]-2-methylphenyl}-L-homoserine]
17 | < 1000 | – | NC(=O)Nc1sc(-c2ccc(OCCC[C@H](N)C(=O)O)cc2)cc1C(N)=O [Example 27, 5-{4-[4-carbamoyl-5-(carbamoylamino)-2-thienyl]phenoxy}-L-norvaline]
18 | < 1000 | – | NC(=O)Nc1sc(-c2ccc(OCC[C@H](N)C(=O)O)cc2Cl)cc1C(N)=O [Example 31, O-{4-[4-carbamoyl-5-(carbamoylamino)-2-thienyl]-3-chlorophenyl}-L-homoserine]
19 | < 1000 | – | NC(=O)Nc1sc(-c2ccc(CCC[C@@H](N)C(=O)O)cc2)cc1C(N)=O [Example 36, 5-{4-[4-carbamoyl-5-(carbamoylamino)-2-thienyl]phenyl}-D-norvaline]
20 | < 1000 | – | NC(=O)Nc1sc(-c2ccc(OCC[C@H](N)C(=O)O)c(Cl)c2)cc1C(N)=O [Example 32, O-{4-[4-carbamoyl-5-(carbamoylamino)-2-thienyl]-2-chlorophenyl}-L-homoserine]
21 | < 1000 | – | NC(=O)Nc1sc(-c2ccc(/C=C/C[C@H](N)C(=O)O)cc2Cl)cc1C(N)=O [Example 37, (2S,4E)-2-amino-5-{4-[4-carbamoyl-5-(carbamoylamino)-2-thienyl]-3-chlorophenyl}pent-4-enoic acid]
22 | < 1000 | – | NC(=O)Nc1sc(-c2ccc(/C=C/C[C@@H](N)C(=O)O)cc2)cc1C(N)=O [Example 34, (2R,4E)-2-amino-5-{4-[4-carbamoyl-5-(carbamoylamino)-2-thienyl]phenyl}pent-4-enoic acid]
23 | < 1000 | – | Cc1cc(-c2cc(C(N)=O)c(NC(N)=O)s2)ccc1/C=C/C[C@H](N)C(=O)O [Example 38, (2S,4E)-2-amino-5-{4-[4-carbamoyl-5-(carbamoylamino)-2-thienyl]-2-methylphenyl}pent-4-enoic acid]
24 | < 1000 | – | NC(=O)Nc1sc(-c2ccc(OCCC[C@@H](N)C(=O)O)cc2)cc1C(N)=O [Example 28, 5-{4-[4-carbamoyl-5-(carbamoylamino)-2-thienyl]phenoxy}-D-norvaline]
25 | < 1000 | – | NC(=O)Nc1sc(-c2ccc(OCC[C@@H](N)C(=O)O)cc2)cc1C(N)=O [Example 25, O-{4-[4-Carbamoyl-5-(carbamoylamino)-2-thienyl]phenyl}-D-homoserine]
26 | < 1000 | – | Cc1cc(OCC[C@H](N)C(=O)O)ccc1-c1cc(C(N)=O)c(NC(N)=O)s1 [Example 29, O-{4-[4-carbamoyl-5-(carbamoylamino)-2-thienyl]-3-methylphenyl}-L-homoserine]
27 | < 1000 | – | NC(=O)Nc1sc(-c2ccc(/C=C\C[C@H](N)C(=O)O)cc2)cc1C(N)=O [Example 42, (2S,4Z)-2-amino-5-{4-[4-carbamoyl-5-(carbamoylamino)-2-thienyl]phenyl}pent-4-enoic acid]
28 | < 1000 | – | NC(=O)Nc1sc(-c2ccc(C[C@H](N)C(=O)O)cc2)cc1C(N)=O [Example 40, 4-[4-carbamoyl-5-(carbamoylamino)-2-thienyl]-L-phenylalanine]
